Format in all cases: cell-based
For assay [1], the system named is murine macrophage indicator cell line, RAW267.4. The assay is described as follows: Inhibition of nitric oxide production in LPS-stimulated macrophages (Griess reaction). As to conditions: single substances, RAW267.4 cells, LPS 1 μg/ml, 24 hours. How it is done: (§1) Pure substances were then further assayed in vitro in cellular cell systems. The inhibition of the synthesis of nitric oxide and/or pro-inflammatory prostaglandins (PG) by the compounds was measured. PGE2 plays a critical role in the inflammation process, while nitric oxide (NO) is a hallmark of inflammation in various chronic inflammatory diseases including various forms of arthritis, gastro-intestinal diseases and metabolic syndrome X. The effects of compounds on the inflammatory response were tested in cellular assays using a murine macrophage indicator cell line, RAW267.4. The cells were purchased from ATCC (Manassas, Va., USA) and cultured in DMEM containing streptomycin/penicillin, non-essential amino acids and 10% fetal calf serum (FCS). In order to test a large range of concentration of compounds, cells (˜50,000/well) were seeded into flat-bottomed microtiter plates and cultured for one day. Cells were then starved in complete medium containing 0.25% FCS (D-025). After overnight culture, medium was removed and replaced by 100 μL of D-025 containing the test compounds at twice the final concentration. Subsequently, 100 μL of D-025 containing 2 μg/ml LPS was added (i.e. final LPS concentration of 1 μg/ml) and the cells cultured for 24 hours.
(§2) Substances were tested in a concentration range from 0.2 to 50 μM in two-fold dilution steps. Extracts were tested from 0.2 to 50 mg/L. All treatments were done in duplicates and several experimental series were done for each treatment. Concentrations of nitrite which was rapidly formed from nitric oxide released by cells were determined by the Griess reaction using sodium nitrite as standard. Briefly, 50 μl of supernatant was mixed with Griess reagent 1 (25 μL) and Griess reagent 2 (25 μL), centrifuged and the optical density at 540 nm determined. PGE2 secreted into the cell culture medium was determined by EIA obtained from Cayman Chemicals (Ann Harbor, […]., USA) and used according to the manufacturer's instructions. All determinations were done in duplicates and at various dilutions of the culture supernatant. IC50 values were calculated using a […] least-square fitting equation [y=A+((B−A)/(1+((C−x)̂D))] for best-fit curves (Excel fit software program).

For assay [2] the test system is unchanged. The assay is described as follows: Inhibition of PGE2 production in LPS-stimulated macrophages (EIA). To be noted: single substances, RAW267.4 cells, LPS 1 μg/ml, 24 hours. As for the experimental part: as §1, §2
Another assay has as its system NF-κB1. Nature of the assay: Expression of inflammatory genes by quantitative RT-PCR: NF-κB1. To be noted: RAW 264.7 cells, 4 hours. How it is done: (§3) The effect of the compounds has been evaluated on the level of the expression of genes that are involved in the inflammatory response. These comprise e.g. the following genes TNF-α, IL-6, MIP1β and NF-κB1 and NF-κBp49, the latter two of which are transcription factors involved in the regulation of inflammatory gene expression. After 4 hours, RNA was extracted and the expression of genes determined by quantitative RT-PCR as described (Richard, N., Porath, D., Radspieler, A. and Schwager, J. Effects of resveratrol, piceatannol, tri-acetoxystilbene, and genistein on the inflammatory response of human peripheral blood leukocytes. Mol Nutr Food Res 2005. 49: 431-442).

A further assay has as its system NF-κBp49. The assay is described as follows: Expression of inflammatory genes by quantitative RT-PCR: NF-κBp49. As to conditions: RAW 264.7 cells, 4 hours. How it is done: as §3
Assay [3] relates to macrophage inflammatory protein 1 [MIP-1]. The assay is described as follows: Expression of inflammatory genes by quantitative RT-PCR: MIP-1. As to conditions: RAW 264.7 cells, 4 hours. How it is done:
as §3

Another assay concerns TNF-α. The assay is described as follows: Expression of inflammatory genes by quantitative RT-PCR: TNF-α. To be noted: RAW 264.7 cells, 4 hours. How it is done: as §3
For the next assay, the system named is IL-6. The assay is described as follows: Expression of inflammatory genes by quantitative RT-PCR: IL-6. As to conditions: RAW 264.7 cells, 4 hours. As for the experimental part:
as §3

For `CCCCCC/C=C\CCCCCCCc1cccc(O)c1C(=O)O` [Ginkoic acid, Ginkgoic acid], the IC50 in assay [1] is above 100 µM; in assay [2], 57.8 µM.
In the same order, the values of `O=C(O[C@@H]1Cc2c(O)cc(O)cc2O[C@@H]1c1cc(O)c(O)c(O)c1)c1cc(O)c(O)c(O)c1` [EGCG, reference compound] are 33 ± 2 µM and 35 µM.
`Oc1ccc(C=Cc2cc(O)cc(O)c2)cc1` [Resveratrol, reference compound]: the IC50 in assay [1] (Mus musculus) turned out to be 31 ± 2 µM; in assay [2] (Mus musculus), 24 ± 2 µM.
Take `CCC/C=C\C/C=C\CCCCCCCc1cccc(O)c1C(=O)O` [(15:2)-Anacardic acid]: the IC50 in assay [1] was determined as 82.4 ± 6.7 µM; in assay [2], 43.1 ± 5.5 µM.
On to `C=CC/C=C\C/C=C\CCCCCCCc1cccc(O)c1C(=O)O` [(15:3)-Anacardic acid], for which the entries for the “% expression NF-κB1 mRNA relative to cells stimulated with LPS only” value in the assay on NF-κB1 (6.25 μM/L) and with NF-κB1 (12.5 μM/L) were 86% and 78%, respectively. Further, the “% expression NF-κBp49 mRNA relative to cells stimulated with LPS only” value in the assay on NF-κBp49 (6.25 μM/L) was found to be 74%; with NF-κBp49 (12.5 μM/L), 57%. Also, the figures for the “% expression MIP-1-α mRNA relative to cells stimulated with LPS only” value in assay [3] (6.25 μM/L) and in assay [3] (12.5 μM/L) were 58% and 41%, respectively. In assay [3], the “Effect on MIP-1β expression (in words)” value is recorded as “significantly reduced”. For the same molecule, the IC50 in assay [1] came out at 7.4 ± 0.4 µM; in assay [2] it was 26.6 ± 21.1 µM. In addition, the “% expression TNF-α mRNA relative to cells stimulated with LPS only” value with TNF-α (6.25 μM/L) was 76%; in the assay on TNF-α (12.5 μM/L), 54%. The “Effect on TNF-α expression (in words)” value in the assay on TNF-α was “significantly reduced”. Further, the “% expression IL-6 mRNA relative to cells stimulated with LPS only” value with IL-6 (6.25 μM/L) came out at 65%; in the assay on IL-6 (12.5 μM/L) it was 71%.
Take `C=CC/C=C\C/C=C\CCCCCCCc1cc(O)cc(O)c1` [Cardoltriene]: the IC50 in assay [1] came to 4.9 ± 0.8 µM; in assay [2], 0.9 ± 0.2 µM.

(Values after patent US20090186942A1, “NOVEL NUTRACEUTICAL AND PHARMACEUTICAL COMPOSITIONS AND USE THEREOF FOR THE TREATMENT, CO-TREATMENT OR PREVENTION OF INFLAMMATORY DISORDERS” (priority 2006, published 2009).)
